Test results: the supplement of paper PMC8671470

Key:
Conditions in all cases: 72 h
BV-173 = test system: BV-173
Outline: (§1)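 In 384-well plates holding acoustically pre-printed compounds at five tenfold doses from 1 to 10,000 nM, in duplicate, fifteen myeloid leukaemia cell lines were grown in RPMI 1640 for 72 h at 37 °C with 5% CO2. Luminescent ATP viability was scaled between vehicle and a positive control at 10 µM. The IC50 was then taken from log-logistic dose–response fits with four parameters.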

HEL = test system: HEL
Outline: as §1

HL-60 = test system: HL-60
Outline: as §1

K-562 = test system: K-562
Outline: as §1

KCL-22 = test system: KCL-22
Outline: as §1

KG-1 = test system: KG-1
Outline: as §1

KU-812 = test system: KU-812
Outline: as §1

LAMA-84 = test system: LAMA-84
Outline: as §1

ML-2 = test system: ML-2
Outline: as §1

MOLM-13 = test system: MOLM-13
Outline: as §1

Mono-Mac-6 = test system: Mono-Mac-6
Outline: as §1

NOMO-1 = test system: NOMO-1
Outline: as §1

SHI-1 = test system: SHI-1
Outline: as §1

THP-1 = test system: THP-1
Outline: as §1

[1] = test system: myeloid leukemia patient primary cells Pat.10; experiment: cell viability (% survival relative to DMSO control); higher = less cytotoxic
Outline: (§2)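 Thawed, Ficoll-purified mononuclear cells from AML or CML patients in RPMI 1640 with 10% FBS were seeded at 10,000 cells/well on 384-well plates pre-printed with 70 compounds at five tenfold concentrations, 1–10,000 nM, in duplicate, for 72 h. Viability was read by CellTiter-Glo and normalised to DMSO and 10 μM proteasome-inhibitor wells. Where given, area under the curve came from four-parameter log-logistic fits (drc, PharmacoGx R packages).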

[2] = test system: myeloid leukemia patient primary cells Pat.11; experiment: as above
Outline: as §2

[3] = test system: myeloid leukemia patient primary cells Pat.12; experiment: as above
Outline: as §2

[4] = test system: myeloid leukemia patient primary cells Pat.13; experiment: as above
Outline: as §2

[5] = test system: myeloid leukemia patient primary cells Pat.14; experiment: as above
Outline: as §2

[6] = test system: myeloid leukemia patient primary cells Pat.15; experiment: as above
Outline: as §2

[7] = test system: myeloid leukemia patient primary cells Pat.1; experiment: as above
Outline: as §2

[8] = test system: myeloid leukemia patient primary cells Pat.2; experiment: as above
Outline: as §2

[9] = test system: myeloid leukemia patient primary cells Pat.3; experiment: as above
Outline: as §2

[10] = test system: myeloid leukemia patient primary cells Pat.4; experiment: as above
Outline: as §2

[11] = test system: myeloid leukemia patient primary cells Pat.5; experiment: as above
Outline: as §2

[12] = test system: myeloid leukemia patient primary cells Pat.6; experiment: as above
Outline: as §2

[13] = test system: myeloid leukemia patient primary cells Pat.7; experiment: as above
Outline: as §2

[14] = test system: myeloid leukemia patient primary cells Pat.8; experiment: as above
Outline: as §2

[15] = test system: myeloid leukemia patient primary cells Pat.9; experiment: as above
Outline: as §2

[16] = test system: myeloid leukemia patient primary cells Pat.3; experiment: area under dose-response curve (viability, 1 nM-10 uM) (fraction (0-1)); higher = more sensitive
Outline: as §2

Nc1ccn([C@@H]2O[C@H](CO)[C@@H](O)C2(F)F)c(=O)n1 [Gemcitabine]
Conditions	IC50 (cell viability) [nM]	area under dose-response curve
BV-173	2.13	–
HEL	3.46	–
HL-60	8.03	–
K-562	16.4	–
KCL-22	6.87	–
KG-1	6.1	–
KU-812	3.3	–
LAMA-84	8.97	–
ML-2	3.12	–
MOLM-13	3.11	–
Mono-Mac-6	3.01	–
NOMO-1	5.7	–
SHI-1	4.79	–
THP-1	6.87	–
[16]	–	0.782

cell viability [%]
Conditions	1 nM	10 nM	100 nM	1000 nM	10000 nM
[1]	67.4	32.6	64.3	45.5	7.03
[2]	95.3	91.6	> 100	83.6	67.2
[3]	96.3	95.9	98.4	92.4	82.8
[4]	89.5	84.5	90.2	86.3	36.4
[5]	52.8	44.5	> 100	67.4	25.8
[6]	96.3	80.8	82.5	78	41.8
[7]	83.4	92.9	99.6	76.6	54.5
[8]	90.2	95.4	98.4	82.9	48.5
[9]	61.9	22.1	25	7.9	4.31
[10]	75.4	93.4	82.8	62.2	32.2
[11]	4.78	2.01	88.3	27.6	2.39
[12]	77.8	84	98.2	91.2	81.8
[13]	52.6	3.48	95.9	65	16.3
[14]	76.5	71.6	91.5	85.4	33.7
[15]	3.95	6.11	56.7	15.4	6.78

O=C(c1c2ccccc2cc2ccccc12)N1CCC(N2CCC[C@@H](C(=O)N3CCOCC3)C2)CC1
Conditions	IC50 (cell viability) [nM]	area under dose-response curve
BV-173	> 10000	–
HEL	> 10000	–
HL-60	1810	–
K-562	> 10000	–
KCL-22	> 10000	–
KG-1	> 10000	–
KU-812	> 10000	–
LAMA-84	> 10000	–
ML-2	> 10000	–
MOLM-13	2770	–
Mono-Mac-6	> 10000	–
NOMO-1	> 10000	–
SHI-1	> 10000	–
THP-1	> 10000	–
[16]	–	< 0.0301

cell viability [%]
Conditions	1 nM	10 nM	100 nM	1000 nM	10000 nM
[1]	88.3	67.9	78.7	29.7	80.8
[2]	99.3	> 100	92.5	72.6	98
[3]	> 100	92	99.7	80.6	96.9
[4]	85.6	89.6	92.9	62.8	86.7
[5]	88.9	98.9	98.2	56.4	94.4
[6]	93.9	94.5	84.5	71.3	88.6
[7]	> 100	83	> 100	58.3	96.7
[8]	94.4	99.4	98	75.4	98.1
[9]	> 100	96.9	> 100	52.6	78.8
[10]	92.6	95	90.2	65.1	60.7
[11]	89.3	67.2	94.9	0.265	69.8
[12]	99.8	96.8	96.6	74.9	96.6
[13]	94.1	87.2	87.3	19	76.8
[14]	87.7	> 100	93.3	69.3	87.5
[15]	63.1	88.4	77.5	2.84	71.4
